Test results from PubChem BioAssay (NCI).
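In this assay, cells in 96-well plates receive the compound at five concentrations for 48 hours. Endpoints are linearly interpolated between the surrounding concentrations. The concentration for 50% growth inhibition is given as GI50. At the TGI there is no net growth.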

Experiments:
Assay in all cases: growth of human tumour cells (NCI), 48 h
[1] = test system: U251 CNS
[2] = test system: MALME-3M melanoma
[3] = test system: SW-620 colon
[4] = test system: ACHN renal
[5] = test system: HOP-62 NSCLC
[6] = test system: SR leukemia
[7] = test system: MDA-MB-435
[8] = test system: NCI-H226 lung
[9] = test system: HCT-15 colon
[10] = test system: HCC-2998 colon
[11] = test system: RXF 393 renal
[12] = test system: UO-31 renal
[13] = test system: MCF7 breast
[14] = test system: SF-295 CNS
[15] = test system: BT-549 breast
[16] = test system: K-562 leukemia
[17] = test system: A549 NSCLC
[18] = test system: NCI/ADR-RES ovarian
[19] = test system: NCI-H522 lung
[20] = test system: UACC-257 melanoma
[21] = test system: MOLT-4 leukemia
[22] = test system: IGROV1 ovarian
[23] = test system: CCRF-CEM leukemia
[24] = test system: NCI-H460 lung
[25] = test system: A498 renal
[26] = test system: SK-MEL-5 melanoma
[27] = test system: HT29 colon
[28] = test system: UACC-62 melanoma
[29] = test system: SK-MEL-28 melanoma
[30] = test system: SF-268 CNS
[31] = test system: HS 578T breast
[32] = test system: NCI-H23 lung
[33] = test system: PC-3 prostate
[34] = test system: DU-145 prostate
[35] = test system: 786-0 renal
[36] = test system: HCT-116 colon
[37] = test system: TK-10 renal
[38] = test system: SNB-75 CNS
[39] = test system: OVCAR-5 ovarian
[40] = test system: KM12 colon
[41] = test system: MDA-MB-231 breast
[42] = test system: SNB-19 CNS
[43] = test system: HOP-92 NSCLC
[44] = test system: SK-MEL-2 melanoma
[45] = test system: RPMI-8226 leukemia
[46] = test system: HL-60(TB) leukemia
[47] = test system: M14 melanoma
[48] = test system: OVCAR-4 ovarian
[49] = test system: SF-539 CNS
[50] = test system: T-47D breast
[51] = test system: SN12C renal
[52] = test system: COLO 205 colon
[53] = test system: OVCAR-8 ovarian
[54] = test system: OVCAR-3 ovarian
[55] = test system: LOX IMVI melanoma
[56] = test system: CAKI-1 renal
[57] = test system: SK-OV-3 ovarian

SMILES: COc1cc(-c2nn(-c3cccc(NC(=O)c4ccc(N5CCOCC5)c(C(F)(F)F)c4)c3)cc2-c2ccncc2)ccc1Cl
- GI50 [1]: 360 nM
- TGI [1]: 4320 nM
- GI50 [2]: 76.9 nM
- TGI [2]: 1540 nM
- GI50 [3]: 168 nM
- TGI [3]: > 56900 nM
- GI50 [4]: 585 nM
- TGI [4]: > 100000 nM
- GI50 [5]: 524 nM
- TGI [5]: > 58600 nM
- GI50 [6]: 36.9 nM
- TGI [6]: > 100000 nM
- GI50 [7]: 25.2 nM
- TGI [7]: 82.7 nM
- GI50 [8]: 1070 nM
- TGI [8]: 99200 nM
- GI50 [9]: 226 nM
- TGI [9]: > 100000 nM
- GI50 [10]: 1500 nM
- TGI [10]: 7000 nM
- GI50 [11]: 207 nM
- TGI [11]: 809 nM
- GI50 [12]: 322 nM
- TGI [12]: 8770 nM
- GI50 [13]: 263 nM
- TGI [13]: > 100000 nM
- GI50 [14]: 150 nM
- TGI [14]: 1150 nM
- GI50 [15]: 932 nM
- TGI [15]: > 42000 nM
- GI50 [16]: 55.5 nM
- TGI [16]: > 100000 nM
- GI50 [17]: 287 nM
- TGI [17]: > 36900 nM
- GI50 [18]: 203 nM
- TGI [18]: > 100000 nM
- GI50 [19]: 60.6 nM
- TGI [19]: 915 nM
- GI50 [20]: 496 nM
- TGI [20]: 6860 nM
- GI50 [21]: 669 nM
- TGI [21]: > 100000 nM
- GI50 [22]: 405 nM
- TGI [22]: 9810 nM
- GI50 [23]: 236 nM
- TGI [23]: > 100000 nM
- GI50 [24]: 299 nM
- TGI [24]: > 20400 nM
- GI50 [25]: 103 nM
- TGI [25]: 765 nM
- GI50 [26]: 126 nM
- TGI [26]: 966 nM
- GI50 [27]: 466 nM
- TGI [27]: 2190 nM
- GI50 [28]: 207 nM
- TGI [28]: 7070 nM
- GI50 [29]: 936 nM
- TGI [29]: > 84800 nM
- GI50 [30]: 559 nM
- TGI [30]: > 48100 nM
- GI50 [31]: 257 nM
- GI50 [32]: 826 nM
- TGI [32]: 34200 nM
- GI50 [33]: 166 nM
- TGI [33]: 5220 nM
- GI50 [34]: 379 nM
- TGI [34]: > 39300 nM
- GI50 [35]: 561 nM
- TGI [35]: 2810 nM
- GI50 [36]: 299 nM
- TGI [36]: > 32900 nM
- GI50 [37]: 1220 nM
- TGI [37]: 19500 nM
- GI50 [38]: 81.8 nM
- TGI [38]: 572 nM
- GI50 [39]: 1200 nM
- TGI [39]: > 86400 nM
- GI50 [40]: 213 nM
- TGI [40]: 8780 nM
- GI50 [41]: 384 nM
- TGI [41]: 3540 nM
- GI50 [42]: 570 nM
- TGI [42]: > 100000 nM
- GI50 [43]: 128 nM
- TGI [43]: 952 nM
- GI50 [44]: 210 nM
- TGI [44]: 2460 nM
- GI50 [45]: 269 nM
- TGI [45]: > 100000 nM
- GI50 [46]: 233 nM
- GI50 [47]: 346 nM
- TGI [47]: 13800 nM
- GI50 [48]: 1510 nM
- TGI [48]: > 100000 nM
- GI50 [49]: 181 nM
- TGI [49]: 552 nM
- GI50 [50]: 471 nM
- TGI [50]: > 28900 nM
- GI50 [51]: 709 nM
- TGI [51]: > 75800 nM
- GI50 [52]: 446 nM
- TGI [52]: 1690 nM
- GI50 [53]: 468 nM
- TGI [53]: > 100000 nM
- GI50 [54]: 147 nM
- TGI [54]: 1190 nM
- GI50 [55]: 371 nM
- TGI [55]: 6200 nM
- GI50 [56]: 293 nM
- TGI [56]: 3190 nM
- GI50 [57]: 345 nM
- TGI [57]: 5340 nM
